Data on nine compounds can be found in paper PMC9808370 (Molecular cancer therapeutics, 2023).

For data set [1], the system named is G3MB and SHHMB tumor cells. As to the kind of experiment: Single agent drug screen, statements over the panel of MB models. It counts as cell-based, human. Particulars: most potent compounds over the MB models.
Data set [2] concerns HD-MB03 cells. Particulars: HD-MB03, 1h exposure.
Data set [3] deals with HD-MB03 cells. In words: cells. The class given is cell-based, human.
The test system of data set [4] is HD-MB03 cells.
A short description of data set [5]: Toxicity measurement in tumor bearing mice. It counts as in vivo, mouse.
Data set [6] relates to SJMBSHH-13-5634 intracranial PDX.
For data set [7] the following is noted: adult patients, once a day dosing; cited from earlier work.
The test system of data set [8] is MB002 intracranial xenograft. In words: Pre-clinical trial, survival of intracranial tumor bearing mice. It counts as in vivo, mouse. As to conditions: 10 mg/kg.
Data set [9] deals with HD-MB03 intracranial xenograft. The data set is described as above. The class given is in vivo, mouse.
Data set [10] has as its system MYC, CYCLIN E, p27KIP1 expression in HD-MB03 cells. As to the kind of experiment: Immunoblotting. Particulars: HD-MB03, 72h, 5μM ribociclib, 0.3μM JQ1, 0.5μM paxalisib. It counts as cell-based, human.

Read-outs that look alike come from different tables or passages of the source.

With `Cc1csc(-c2nnc(Nc3ccc(Oc4ncccc4-c4ccnc(N)n4)cc3)c3ccccc23)c1` [AMG-900], the “IC50 (in words)” value in [1] was “picomolar to low nanomolar range”.
The same measure, in the same setting: in the case of `CON(C)C(=O)N1N=C(c2cc(F)ccc2F)S[C@@]1(CCCN)c1ccccc1` [ARRY-520 /filanesib, filanesib] it was “picomolar to low nanomolar range”.
What is called IC50 is the concentration that gives 50% inhibition. High values mean weaker potency in that assay, low ones greater potency in that assay. A word on the IC20: it is the concentration at which the effect reaches the 20% level. A lower IC20 goes with an effect from little substance. Turning to `Cc1sc2c(c1C)C(c1ccc(Cl)cc1)=N[C@@H](CC(=O)OC(C)(C)C)c1nnc(C)n1-2` [JQ1], the IC50 in the data set with HD-MB03 cells [2] is over 2 µM. In the data set on HD-MB03 cells [3] (HD-MB03, anchor concentration), the IC20 is 0.132 µM.
In the case of `Cc1nc(Nc2n[nH]c3c2CN(C(=O)N[C@H](CN(C)C)c2ccccc2)C3(C)C)c2sccc2n1` [PF-03758309], the “IC50 (in words)” value in data set [1] is given as “picomolar to low nanomolar range”.
Same read-out and setting: in the case of `CCc1c2c(nc3ccc(O)cc13)-c1cc3c(c(=O)n1C2)COC(=O)[C@]3(O)CC` [SN-38] it was “picomolar to low nanomolar range”.
Take `CCN1CCN(Cc2ccc(Nc3ncc(F)c(-c4cc(F)c5nc(C)n(C(C)C)c5c4)n3)nc2)CC1` [abemaciclib]: the “EC50 fold improvement (IC50 fold change of drug partner)” value with HD-MB03 cells [4] is recorded as 12.8 fold.
Same read-out and setting: for `CC(=O)c1c(C)c2cnc(Nc3ccc(N4CCNCC4)cn3)nc2n(C2CCCC2)c1=O` [palbociclib] the value was 30.5 fold.
In the case of `CC1(C)OCCn2c1nc1c(N3CCOCC3)nc(-c3cnc(N)nc3)nc12` [paxalisib], in data set [5] (MB bearing mice, paxalisib 10mg/kg alone or with ribociclib 100mg/kg), the “body weight and body condition” value is “severe weight loss and had poor body condition”. The values for the Median survival in data set [6] (10 mg/kg), in data set [8] and in data set [9] (10 mg/kg) were 46 days, 33.5 days and 27 days, respectively. Further, the maximum tolerated dose in [7] is 45 mg/day.
Turning to `CN(C)C(=O)c1cc2cnc(Nc3ccc(N4CCNCC4)cn3)nc2n1C1CCCC1` [ribociclib], the “MYC, CYCLIN E, p27KIP1 protein expression” value in data set [10] is “increased expression of MYC and CYCLIN E proteins”. For the same compound, in the data set on HD-MB03 cells [4] (Fig. 2D, 0.132μM JQ1 anchor, HD-MB03), the “EC50 fold improvement (IC50 fold change of drug partner)” value is listed as 7.8 fold. In [5] (MB002-bearing mice, ribociclib 100mg/kg, JQ1 50mg/kg daily), the “complete blood counts (in words)” value is given as “mild leukopenia”. Besides, the Median survival in data set [6] (100 mg/kg) is 71.5 days; in [9] (100 mg/kg) it was 25 days. The IC20 with HD-MB03 cells [3] (Homo sapiens, HD-MB03) worked out at 5 µM.
